Where two headings read alike, the source gives them in different places.
Tested on: iCell cardiomyocytes (human iPSC-derived cardiomyocytes)
Assay: High-content imaging of cytotoxicity and mitochondrial integrity in iPSC-CMs
Assay type: cell-based
Settings: Homo sapiens; for viability at 0.01 µM / activity at 0.01 µM / viability at 0.1 µM / activity at 0.1 µM / viability at 1 µM / activity at 1 µM / viability at 10 µM / activity at 10 µM / viability at 100 µM / activity at 100 µM: 0.00 µM = 100.00; for viability at 0.1 µM / activity at 0.1 µM: 0.10 µM
Procedure, shortened: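 Readouts from high-content images were normalized to vehicle controls containing 0.5% vol/vol DMSO. They were fit to a four-parameter logistic model in R. Points of departure were set using a cutoff of one standard deviation across vehicle control means. Where no concentration–response was seen, the top tested concentration of 100μM was assigned as the no observable adverse effect level.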

[1] = Cardiomyocyte, 1.5 h, read-out: cm.cam.90min
[2] = Cardiomyocyte, 1.5 h, read-out: cm.mii.90min
[3] = Cardiomyocyte, 1.5 h, read-out: cm.mito.90min
[4] = Cardiomyocyte, 1.5 h, read-out: cm.tc.90min
[5] = Cardiomyocyte, 24 h, read-out: cm.cam.24hrs
[6] = Cardiomyocyte, 24 h, read-out: cm.mii.24hrs
[7] = Cardiomyocyte, 24 h, read-out: cm.mito.24hrs
[8] = Cardiomyocyte, 24 h, read-out: cm.tc.24hrs
[9] = iPSC-CM, 1.5 h, iPSC-CM, read-out: cm.cam.90min POD
[10] = iPSC-CM, 1.5 h, iPSC-CM, read-out: cm.mii.90min POD
[11] = iPSC-CM, 1.5 h, iPSC-CM, read-out: cm.mito.90min POD
[12] = iPSC-CM, 1.5 h, iPSC-CM, read-out: cm.tc.90min POD
[13] = iPSC-CM, 24 h, iPSC-CM, read-out: cm.cam.24hrs POD
[14] = iPSC-CM, 24 h, iPSC-CM, read-out: cm.mii.24hrs POD
[15] = iPSC-CM, 24 h, iPSC-CM, read-out: cm.mito.24hrs POD
[16] = iPSC-CM, 24 h, iPSC-CM, read-out: cm.tc.24hrs POD

Compound: Oc1cccc(-c2ccc(Cl)cc2)c1 [3'-OH PCB3]
- viability at 0.01 µM [1]: 101%
- activity at 0.01 µM [2]: 109%
- activity at 0.01 µM [3]: 101%
- viability at 0.01 µM [4]: 101%
- viability at 0.1 µM [1]: 96.5%
- activity at 0.1 µM [2]: 107%
- activity at 0.1 µM [3]: 96.4%
- viability at 0.1 µM [4]: 96.6%
- viability at 1 µM [1]: 103%
- activity at 1 µM [2]: 98.4%
- activity at 1 µM [3]: 103%
- viability at 1 µM [4]: 103%
- viability at 10 µM [1]: 99.4%
- activity at 10 µM [2]: 106%
- activity at 10 µM [3]: 99.2%
- viability at 10 µM [4]: 99.2%
- viability at 100 µM [1]: 0%
- activity at 100 µM [2]: 0%
- activity at 100 µM [3]: 0%
- viability at 100 µM [4]: 0%
- viability at 0.01 µM [5]: 91.7%
- activity at 0.01 µM [6]: 99.6%
- activity at 0.01 µM [7]: 88.3%
- viability at 0.01 µM [8]: 91.6%
- viability at 0.1 µM [5]: 99.1%
- activity at 0.1 µM [6]: 109%
- activity at 0.1 µM [7]: 97.5%
- viability at 0.1 µM [8]: 98.9%
- viability at 1 µM [5]: 104%
- activity at 1 µM [6]: 92.4%
- activity at 1 µM [7]: 101%
- viability at 1 µM [8]: 104%
- viability at 10 µM [5]: 98%
- activity at 10 µM [6]: 98.8%
- activity at 10 µM [7]: 97.5%
- viability at 10 µM [8]: 98.6%
- viability at 100 µM [5]: 0.0471%
- activity at 100 µM [6]: 0%
- activity at 100 µM [7]: 0%
- viability at 100 µM [8]: 0.09%
- minimal effective concentration [9]: 16 µM
- minimal effective concentration [10]: 35 µM
- minimal effective concentration [11]: 15 µM
- minimal effective concentration [12]: 14.8 µM
- minimal effective concentration [13]: 14.1 µM
- minimal effective concentration [14]: 23 µM
- minimal effective concentration [15]: 14 µM
- minimal effective concentration [16]: 15.6 µM

Compound: O=C1C=CC(=O)C(c2ccc(Cl)cc2)=C1 [4-Cl-BQ, 2-(4-Chlorophenyl)benzo-2,5-quinone]
- viability at 0.01 µM [1]: 103%
- activity at 0.01 µM [2]: 106%
- activity at 0.01 µM [3]: 103%
- viability at 0.01 µM [4]: 103%
- viability at 0.1 µM [1]: 96.5%
- activity at 0.1 µM [2]: 116%
- activity at 0.1 µM [3]: 95.9%
- viability at 0.1 µM [4]: 96.2%
- viability at 1 µM [1]: 100%
- activity at 1 µM [2]: 117%
- activity at 1 µM [3]: 100%
- viability at 1 µM [4]: 100%
- viability at 10 µM [1]: 103%
- activity at 10 µM [2]: 91.5%
- activity at 10 µM [3]: 102%
- viability at 10 µM [4]: 103%
- viability at 100 µM [1]: 29.9%
- activity at 100 µM [2]: 8.08%
- activity at 100 µM [3]: 0.09%
- viability at 100 µM [4]: 100%
- minimal effective concentration (Cardiomyocyte, 1.5 h, cardiomyocytes (cm), cam, 90 min, read-out: POD cm.cam.90min): 37.6 µM
- minimal effective concentration (Cardiomyocyte, 1.5 h, cardiomyocytes (cm), mii, 90 min, read-out: POD cm.mii.90min): 9.33 µM
- minimal effective concentration (Cardiomyocyte, 1.5 h, cardiomyocytes (cm), mito, 90 min, read-out: POD cm.mito.90min): 38.7 µM
- minimal effective concentration (Cardiomyocyte, 1.5 h, cardiomyocytes (cm), tc, 90 min, read-out: POD cm.tc.90min): 100 µM
- viability at 0.01 µM [5]: 92.6%
- activity at 0.01 µM [6]: 100%
- activity at 0.01 µM [7]: 89.4%
- viability at 0.01 µM [8]: 92.8%
- viability at 0.1 µM [5]: 98.4%
- activity at 0.1 µM [6]: 110%
- activity at 0.1 µM [7]: 96.5%
- viability at 0.1 µM [8]: 99.1%
- viability at 1 µM [5]: 105%
- activity at 1 µM [6]: 97.3%
- activity at 1 µM [7]: 103%
- viability at 1 µM [8]: 105%
- viability at 10 µM [5]: 51.1%
- activity at 10 µM [6]: 128%
- activity at 10 µM [7]: 50.9%
- viability at 10 µM [8]: 50.4%
- viability at 100 µM [5]: 66.6%
- activity at 100 µM [6]: 0.9%
- activity at 100 µM [7]: 0.05%
- viability at 100 µM [8]: 100%
- minimal effective concentration (Cardiomyocyte, 24 h, cardiomyocytes (cm), cam, 24 hrs, read-out: POD cm.cam.24hrs): 0.06 µM
- minimal effective concentration (Cardiomyocyte, 24 h, cardiomyocytes (cm), mii, 24 hrs, read-out: POD cm.mii.24hrs): 46.4 µM
- minimal effective concentration (Cardiomyocyte, 24 h, cardiomyocytes (cm), mito, 24 hrs, read-out: POD cm.mito.24hrs): 3.85 µM
- minimal effective concentration (Cardiomyocyte, 24 h, cardiomyocytes (cm), tc, 24 hrs, read-out: POD cm.tc.24hrs): 100 µM
- minimal effective concentration [9]: 37.6 µM
- minimal effective concentration [10]: 9.33 µM
- minimal effective concentration [11]: 38.7 µM
- minimal effective concentration [12]: 100 µM
- minimal effective concentration [13]: 0.06 µM
- minimal effective concentration [14]: 46.4 µM
- minimal effective concentration [15]: 3.85 µM
- minimal effective concentration [16]: 100 µM

Reference: article PMC7377239, “Cardiovascular Effects of Polychlorinated Biphenyls and Their Major Metabolites” (Environmental Health Perspectives, 2020)
